Test [1] deals with MEFs from p53-deficient mice. The experiment in a line: Killing of MEFs from p53-deficient mice. Type of test: cell-based, mouse. The source says: (§1) While p53 induces apoptotic cell death in many tumor cells, it generally only induces growth arrest in untransformed cells. This has been the rationale for many studies targeting the p53 system.
Test [2] deals with T1, Rabbit E1 (Oryctolagus cuniculus, UniProt Q29504).
T1 construct: purchased Calbiochem #6620700
T1 sequence (Q29504 1-1058): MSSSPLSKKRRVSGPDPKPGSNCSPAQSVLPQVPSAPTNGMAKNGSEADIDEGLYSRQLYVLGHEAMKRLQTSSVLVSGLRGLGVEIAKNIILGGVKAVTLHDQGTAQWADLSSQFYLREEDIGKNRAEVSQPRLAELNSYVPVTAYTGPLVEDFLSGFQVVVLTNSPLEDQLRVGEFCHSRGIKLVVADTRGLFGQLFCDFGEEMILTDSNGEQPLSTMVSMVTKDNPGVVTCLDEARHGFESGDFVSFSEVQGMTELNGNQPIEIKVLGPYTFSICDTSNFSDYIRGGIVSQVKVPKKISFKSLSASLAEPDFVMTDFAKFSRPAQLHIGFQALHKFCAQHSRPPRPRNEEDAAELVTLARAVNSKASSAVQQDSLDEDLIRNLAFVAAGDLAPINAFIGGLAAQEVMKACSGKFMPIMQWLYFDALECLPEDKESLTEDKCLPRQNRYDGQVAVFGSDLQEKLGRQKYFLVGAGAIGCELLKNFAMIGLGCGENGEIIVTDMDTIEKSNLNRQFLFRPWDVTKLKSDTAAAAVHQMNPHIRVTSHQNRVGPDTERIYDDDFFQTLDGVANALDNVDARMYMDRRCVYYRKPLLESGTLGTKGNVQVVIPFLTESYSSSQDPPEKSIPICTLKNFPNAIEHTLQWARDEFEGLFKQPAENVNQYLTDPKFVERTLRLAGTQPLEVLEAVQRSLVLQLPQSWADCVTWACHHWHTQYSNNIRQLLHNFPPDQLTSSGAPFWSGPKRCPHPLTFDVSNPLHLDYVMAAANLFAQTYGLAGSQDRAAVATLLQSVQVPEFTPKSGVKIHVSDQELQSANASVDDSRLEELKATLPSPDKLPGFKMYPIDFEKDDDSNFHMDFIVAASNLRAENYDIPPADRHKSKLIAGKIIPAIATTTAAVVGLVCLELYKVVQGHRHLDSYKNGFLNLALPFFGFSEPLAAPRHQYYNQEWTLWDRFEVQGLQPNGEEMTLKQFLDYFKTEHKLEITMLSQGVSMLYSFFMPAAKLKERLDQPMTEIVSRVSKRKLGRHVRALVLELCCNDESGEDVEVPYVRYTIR
The experiment in a line: E1 only assay: thiolester linkage between 32P-labeled ubiquitin and E1. The test is classed as biochemical. The conditions noted are these: gel-based assay with 32P-labeled ubiquitin; stated after block of E1-ubiquitin thiolester formation (FIG. 1B). On the procedure:
Since Mdm2 autoubiquitination depends on the activity of E1 and E2, some of these might act by inhibiting E1. In fact, some did block the formation of thiolester linkages between ^32P-labeled ubiquitin and E1 (FIG. 1B). The compound 4-[4-(5-nitro-furan-2-ylmethylene)-3,5-dioxo-pyrazolidin-1-yl]-benzoic acid methyl acid was active at a concentration of 20-50 μM.
b. “E1 Only” Assay. • 2 μl rabbit E1+12 μl of 1× reaction buffer are mixed together with the test compound followed by addition of 1 μl of ^32P Ub. After incubating for 10 minutes at room temperature, the samples are denatured using loading buffer without reducing agent and subjected to SDS-PAGE under non-reducing conditions to maintain thiol-ester linkages and exposure as above.

In test [3] the test system is IκBα. In words: TNFα-induced IκBα phosphorylation in cells. The conditions noted are these: 1 minute stimulation. The test is classed as cell-based.
The subject of test [4] is Mdm2. In words: Cellular Mdm2 level by immunoblotting. The conditions noted are these: six hours treatment; RPE cells. Type of test: cell-based. The source says:
FIG. 5A depicts the increase in the levels of Mdm2 and p53 in RPE cells after treatment with the E1 inhibitor 4-[4-(5-nitro-furan-2-ylmethylene)-3,5-dioxo-pyrazolidin-1-yl]-benzoic acid methyl acid.
(In general: Immunoblotting shows a protein as a band on a membrane.)

Test [5] deals with NFκB. In words: NFκB response element-driven luciferase reporter, IL-1 induced. Type of test: cell-based, human. The note with it: HeLa cells, 50 μM for 10 minutes, then IL-1 0-1.0 ng/ml for 2 hours. On the procedure: HeLa cells (human epithelial cells) were transfected with a NFκB response element-driven luciferase reporter. The cells were treated with E1 41 (50 μM) for 10 minutes, or dimethyl sulfoxide (DMSO) control. Interleukin 1 (IL-1) was added to the cells for 2 hours. IL-1 was added at concentrations ranging from 0-1.0 ng/ml to induce activation of NFκB. An assay for luciferase activity was carried out according to the methods as described in the commercially available PROMEGA system for luciferase detection.
(A reporter such as luciferase makes a cellular process visible.)

In test [6] the test system is untransformed retinal pigment epithelial cells. In words: Growth of untransformed RPE cells, MTT assay. The test is classed as cell-based.
Description: FIG. 6A depicts the induction of growth arrest in untransformed RPE cells by 4-[4-(5-nitro-furan-2-ylmethylene)-3,5-dioxo-pyrazolidin-1-yl]-benzoic acid methyl […], as measured by MTT assay.
as §1
(Tetrazolium assays rely on reduction of a dye to a coloured formazan, in cell work by metabolically active cells.)

`COC(=O)c1ccc(N2NC(=O)/C(=C/c3ccc([N+](=O)[O-])o3)C2=O)cc1` [E1-41, 4-[4-(5-nitro-furan-2-ylmethylene)-3,5-dioxo-pyrazolidin-1-yl]-benzoic acid methyl acid]: in test [1], the “killing of MEFs from p53-deficient mice” value is “relatively resistant”. Moreover, the “concentration at which the compound was active” value in test [2] fell in the range of 20 to 50 µM. Further, the “IκBα phosphorylation following TNFα treatment” value in test [3] is “blocks IκBα phosphorylation”. Also, the “cellular Mdm2 level” value in test [4] was “increased”. In addition, the “IL-1 induced NFκB luciferase reporter activity” value in test [5] was “reduction of luciferase activity”. Moreover, in test [6], the “effect on growth of untransformed retinal pigment epithelial cells” value is reported as “causes growth arrest”.

The values above are taken from patent publication US8242160B2, “Inhibitors of ubiquitin E1” (The United States of America, as represented by the …, priority 2005, dated 2012).
